Data: US20260265252A1, “SOLID STATE FORMS OF IMIPRIDONE DERIVATIVE” (CHIMERIX, INC., priority 2024, published 2026)
Structures can show the parent of a compound that is named as a salt.

Experiments:
[1] = test system: diffuse midline glioma, H3 K27M-mutant (DMG H3K27M); conditions: patients with diffuse midline glioma; cited from earlier work
[2] = Dynamic vapor sorption (DVS) water uptake; assay type: physicochemical; conditions: for total water uptake / water uptake: DVS; for hygroscopicity: characterised by DVS water uptake
Description: Dynamic Vapor Sorption (DVS)
Vapor sorption data were collected on a Surface Measurement System DVS Intrinsic instrument. Samples were not dried prior to analysis. Sorption and desorption data were collected over the stated range from at 10% RH increments under a nitrogen purge. The equilibrium criterion used […]

[3] = Relative humidity (RH) experiments / exposure to moisture, solid form change; assay type: physicochemical; conditions: for form change: exposure to moisture / relative humidity (RH) experiments
Description: The three batches of Compound I (ONC206·2HCl) manufactured to date are described below. The first two processes consistently produced Form 1 (i.e., desolvated anhydrous form, Form 1).

[4] = Solid form stability at ambient conditions; assay type: physicochemical

Structure (SMILES) | total water uptake [2] | total water uptake ([2]; moles of water) | hygroscopicity [2] | water uptake ([2]; relative humidity of up to 95%) | other results
Cc1ccccc1CN1C(=O)C2=C(CCN(Cc3ccccc3)C2)N2CCN=C12 [ONC201] |  |  |  |  | tumor regressions [1]: induced durable tumor regressions
O=C1C2=C(CCN(Cc3ccccc3)C2)N2CCN=C2N1Cc1ccc(F)cc1F [Compound I Form 1, 7-benzyl-4-(2,4-difluorobenzyl)-2,4,6,7,8,9-hexahydroimidazo[1,2-a]pyrido[3,4-e]pyrimidin-5(1H)-one] | 7.5% | ~ 2.2 moles | hygroscopic |  | water uptake ([2]; relative humidity of 65% to 85%): 6.7%; water uptake ([2]; relative humidity of 85% to 95%): 0.3%; water uptake ([2]; relative humidity of up to 65%): 0.5%; form change [3]: tends to convert into Form 2; hygroscopicity ([3]; statement in Example 1): hygroscopic
O=C1C2=C(CCN(Cc3ccccc3)C2)N2CCN=C2N1Cc1ccc(F)cc1F [Compound I Fumarate Form A, 7-benzyl-4-(2,4-difluorobenzyl)-2,4,6,7,8,9-hexahydroimidazo[1,2-a]pyrido[3,4-e]pyrimidin-5(1H)-one] | 0.7% | 0.1 mol | slightly hygroscopic | 0.7% | 
O=C1C2=C(CCN(Cc3ccccc3)C2)N2CCN=C2N1Cc1ccc(F)cc1F [Compound I Sulfate Form A, 7-benzyl-4-(2,4-difluorobenzyl)-2,4,6,7,8,9-hexahydroimidazo[1,2-a]pyrido[3,4-e]pyrimidin-5(1H)-one] | 2.5% | 1.3 mol | slightly hygroscopic |  | water uptake ([2]; relative humidity of up to 96%): 2.5%
O=C1C2=C(CCN(Cc3ccccc3)C2)N2CCN=C2N1Cc1ccc(F)cc1F [Compound I Material 14, 7-benzyl-4-(2,4-difluorobenzyl)-2,4,6,7,8,9-hexahydroimidazo[1,2-a]pyrido[3,4-e]pyrimidin-5(1H)-one] |  |  |  |  | stability of the solid form [4]: metastable
O=C1C2=C(CCN(Cc3ccccc3)C2)N2CCN=C2N1Cc1ccc(F)cc1F [Compound I Tosylate Form A, 7-benzyl-4-(2,4-difluorobenzyl)-2,4,6,7,8,9-hexahydroimidazo[1,2-a]pyrido[3,4-e]pyrimidin-5(1H)-one] | 1.3% | 0.4 mol | slightly hygroscopic |  | water uptake ([2]; relative humidity of up to 96%): 1.3%
O=C1C2=C(CCN(Cc3ccccc3)C2)N2CCN=C2N1Cc1ccc(F)cc1F [Compound I Form A, 7-benzyl-4-(2,4-difluorobenzyl)-2,4,6,7,8,9-hexahydroimidazo[1,2-a]pyrido[3,4-e]pyrimidin-5(1H)-one] | 0.3% | < 0.1 mol | non-hygroscopic | 0.3% | 
O=C1C2=C(CCN(Cc3ccccc3)C2)N2CCN=C2N1Cc1ccc(F)cc1F [Compound I Form 2, 7-benzyl-4-(2,4-difluorobenzyl)-2,4,6,7,8,9-hexahydroimidazo[1,2-a]pyrido[3,4-e]pyrimidin-5(1H)-one] | 2.5% | ~ 0.7 moles | hygroscopic |  | water uptake ([2]; relative humidity of 5% to 25%): 1.8%; water uptake ([2]; relative humidity of 25% to 95%): 0.6%; form change [3]: no form change was observed
O=C1C2=C(CCN(Cc3ccccc3)C2)N2CCN=C2N1Cc1ccc(F)cc1F [Compound I Besylate Form A, 7-benzyl-4-(2,4-difluorobenzyl)-2,4,6,7,8,9-hexahydroimidazo[1,2-a]pyrido[3,4-e]pyrimidin-5(1H)-one] | 0.3% | < 0.1 mol | non-hygroscopic | 0.3% | 
